Data on 15 compounds can be found in ChEMBL document CHEMBL2057063, “Exogenous fluorescent tracer agents based on pegylated pyrazine dyes for real-time point-of-care measurement of glomerular filtration rate” (Bioorg Med Chem, 2012).

SMILES strings stand for the structures.

Data set [1] is described as follows: Drug excretion in Sprague-Dawley rat urine administered via tail vein measured after 6 hrs by HPLC analysis. Conditions: iv, read-out: Ae. The class given is ADME.
Data set [2] in a line: Plasma protein binding in rat at 20 uM after 1 hr by HPLC analysis. The format is ADME, cell-free. Conditions: read-out: PPB (converted).
The next data set is filed under the species Rattus norvegicus. In words: Volume of distribution in Sprague-Dawley rat. The format is ADME, organism-based. Conditions: in vivo.
A short description of data set [3]: Clearance in Sprague-Dawley rat. Conditions: in vivo. The format is ADME, organism-based.
Data set [4] can be described thus: Clearance in Sprague-Dawley rat in presence of 70 mg/kg probenecid administered 10 mins prior to compound treatment. The format is ADME, organism-based. Details: dose 70 mg/kg. To be noted: in vivo, with probenecid 70 mg/kg.
A short description of data set [5]: Terminal elimination half life in Sprague-Dawley rat plasma. The format is ADME, cell-free. Conditions: read-out: beta t1/2.
Data set [6] is described as follows: Terminal elimination half life in Sprague-Dawley rat blood. The format is ADME, tissue-based. Conditions: read-out: beta t1/2.

Regarding `COCCOCCOCCOCCOCCOCCOCCOCCCNc1nc(C(=O)NCCOCCOCCOCCOCCOCCOCCOCCOCCOCCOCCOCCOCCOCCOCCOCCOCCOCCOCCOCCOCCOCCOCCOCCOC)c(NCCCOCCOCCOCCOCCOCCOCCOCCOC)nc1C(=O)NCCOCCOCCOCCOCCOCCOCCOCCOCCOCCOCCOCCOCCOCCOCCOCCOCCOCCOCCOCCOCCOCCOCCOCCOC`, the dose excreted at 6 h in data set [1] came out at 92%. Further, in data set [2], the fraction unbound at 1 h, 20 µM was 0.7.

As to `COCCOCCOCCOCCOCCOCCOCCOCCOCCOCCOCCOCCOCCOCCOCCOCCOCCOCCOCCOCCOCCOCCOCCOCCCNc1nc(C(=O)NCCOCCOCCOCCOCCOCCOCCOCCOCCOCCOCCOCCOCCOCCOCCOCCOCCOCCOCCOCCOCCOCCOCCOCCOC)c(NCCCOCCOCCOCCOCCOCCOCCOCCOCCOCCOCCOCCOCCOCCOCCOCCOCCOCCOCCOCCOCCOCCOCCOCCOC)nc1C(=O)NCCOCCOCCOCCOCCOCCOCCOCCOCCOCCOCCOCCOCCOCCOCCOCCOCCOCCOCCOCCOCCOCCOCCOCCOC`, the dose excreted at 6 h in data set [1] amounted to 86%. For the same compound, in data set [2], the fraction unbound at 1 h, 20 µM is 0.61.

For `O=C(NCC(O)CO)c1nc(NC[C@H](O)CO)c(C(=O)NCC(O)CO)nc1NC[C@H](O)CO` (some centres undefined), the dose excreted at 6 h in data set [1] was found to be 88%.

For `COCCOCCOCCOCCNC(=O)c1nc(N)c(C(=O)NCCOCCOCCOCCOC)nc1N`, the dose excreted at 6 h in data set [1] was 41%. Moreover, in data set [2], the fraction unbound at 1 h, 20 µM was 1.

Consider `COCCOCCOCCOCCOCCOCCOCCOCCNC(=O)c1nc(N)c(C(=O)NCCOCCOCCOCCOCCOCCOCCOCCOC)nc1N`, for which, in data set [1], the dose excreted at 6 h was 45%. The fraction unbound at 1 h, 20 µM in data set [2] was 1.

Regarding `Nc1nc(C(=O)N[C@H](CO)C(=O)O)c(N)nc1C(=O)N[C@H](CO)C(=O)O` [RELMAPIRAZIN], the Vd in the data set filed under Rattus norvegicus worked out at 83 mL. Moreover, the dose excreted at 6 h in data set [1] was 90%.

As to `COCCOCCOCCOCCCNc1nc(C(=O)NCCOCCOCCOCCOCCOCCOCCOCCOCCOCCOCCOCCOC)c(NCCCOCCOCCOCCOC)nc1C(=O)NCCOCCOCCOCCOCCOCCOCCOCCOCCOCCOCCOCCOC`, in data set [1], the dose excreted at 6 h is 86%. The fraction unbound at 1 h, 20 µM in data set [2] was 1.

As for `COCCOCCOCCNc1nc(C(=O)NCCOCCOCCOCCOCCOCCOCCOCCOCCOCCOCCOCCOCCOCCOCCOCCOCCOCCOCCOCCOCCOCCOCCOCCOC)c(NCCOCCOCCOC)nc1C(=O)NCCOCCOCCOCCOCCOCCOCCOCCOCCOCCOCCOCCOCCOCCOCCOCCOCCOCCOCCOCCOCCOCCOCCOCCOC`, the dose excreted at 6 h in data set [1] amounted to 96%. In data set [2], the fraction unbound at 1 h, 20 µM is 0.89.

Take `COCCOCCOCCOCCOCCOCCOCCOCCCNc1nc(C(=O)NCCOCCOCCOCCOCCOCCOCCOCCOCCOCCOCCOCCOC)c(NCCCOCCOCCOCCOCCOCCOCCOCCOC)nc1C(=O)NCCOCCOCCOCCOCCOCCOCCOCCOCCOCCOCCOCCOC`: the dose excreted at 6 h in data set [1] was 87%. Besides, the fraction unbound at 1 h, 20 µM in data set [2] was 0.99.

Turning to `CNC(=O)c1c(I)c(NC(C)=O)c(I)c(C(=O)[O-])c1I.[Na+]` [IOTHALAMATE SODIUM], the clearance was determined as 2.5 mL/min in data set [3] and 2.2 mL/min in data set [4]. In the data set filed under Rattus norvegicus, this compound showed a Vd of 104 mL. For the same compound, the dose excreted at 6 h in data set [1] stood at 80%.

In the data set filed under Rattus norvegicus, `COCCOCCOCCOCCOCCOCCOCCOCCOCCOCCOCCOCCCNc1nc(C(=O)NCCOCCOCCOCCOCCOCCOCCOCCOCCOCCOCCOCCOCCOCCOCCOCCOCCOCCOCCOCCOCCOCCOCCOCCOC)c(NCCCOCCOCCOCCOCCOCCOCCOCCOCCOCCOCCOCCOC)nc1C(=O)NCCOCCOCCOCCOCCOCCOCCOCCOCCOCCOCCOCCOCCOCCOCCOCCOCCOCCOCCOCCOCCOCCOCCOCCOC` returned a Vd of 68 mL. For the same compound, in data set [1], the dose excreted at 6 h is 89%. The fraction unbound at 1 h, 20 µM in data set [2] was 0.59. Moreover, the half-life in data set [5] is 31 min.

As for `COCCOCCOCCOCCOCCOCCOCCOCCOCCOCCOCCOCCNC(=O)c1nc(N)c(C(=O)NCCOCCOCCOCCOCCOCCOCCOCCOCCOCCOCCOCCOC)nc1N`, the Vd in the data set filed under Rattus norvegicus worked out at 70 mL. Also, the dose excreted at 6 h in data set [1] was 71%. In addition, in data set [2], the fraction unbound at 1 h, 20 µM is 1. Also, in data set [5], the half-life turned out to be 20 min.

For `CCCNc1nc(C(=O)NCCOCCOCCOCCOCCOCCOCCOCCOCCOCCOCCOCCOCCOCCOCCOCCOCCOCCOCCOCCOCCOCCOCCOCCOC)c(NCCC)nc1C(=O)NCCOCCOCCOCCOCCOCCOCCOCCOCCOCCOCCOCCOCCOCCOCCOCCOCCOCCOCCOCCOCCOCCOCCOCCOC`, in data set [1], the dose excreted at 6 h was 85%. For the same compound, the fraction unbound at 1 h, 20 µM in data set [2] was 0.87.

Take `COCCOCCOCCOCCOCCOCCOCCOCCOCCOCCOCCOCCOCCOCCOCCOCCOCCOCCOCCOCCOCCOCCOCCOCCNC(=O)c1nc(N)c(C(=O)NCCOCCOCCOCCOCCOCCOCCOCCOCCOCCOCCOCCOCCOCCOCCOCCOCCOCCOCCOCCOCCOCCOCCOCCOC)nc1N`: the clearance in data set [3] is 2.8 mL/min; in data set [4], 2.7 mL/min. In the data set listed under Rattus norvegicus, this compound returned a Vd of 64 mL. Besides, in data set [1], the dose excreted at 6 h came out at 96%. Also, the fraction unbound at 1 h, 20 µM in data set [2] was 0.95. Besides, in data set [5], the half-life was 25 min.

As to `COCCOCCOCCOCCOCCOCCOCCOCCOCCOCCOCCOCCCNc1nc(C(=O)NCCOCCOCCOCCOCCOCCOCCOCCOCCOCCOCCOCCOC)c(NCCCOCCOCCOCCOCCOCCOCCOCCOCCOCCOCCOCCOC)nc1C(=O)NCCOCCOCCOCCOCCOCCOCCOCCOCCOCCOCCOCCOC`, the clearance in data set [3] was 3.1 mL/min; in data set [4] it was 3.3 mL/min. The compound further returned a Vd in the data set filed under Rattus norvegicus of 61 mL. Besides, the half-life in data set [6] is 21.6 min; in data set [5], 19 min. Besides, the dose excreted at 6 h in data set [1] is 97%. Besides, the fraction unbound at 1 h, 20 µM in data set [2] is 0.97.
